# Results from the supplement of paper PMC10307832.
# Columns and labels:
# Experiment in all cases: relative viability (nuclei count vs DMSO), 5 days (fraction); higher = more cells survive
# [1] = system: NCI-H1437
# Procedure, shortened: (§1)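 Medians of duplicate plates are given as relative viability. That measure is the nuclei count in treated wells divided by the count in vehicle wells. Counts were taken on 4× images of lung cancer cell lines in 1536-well plates, 5 days after pin-tool dosing the day after seeding with one drug alone or a fixed anchor-drug dose plus five library-drug doses (not always all listed) in √10 steps.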
# [2] = system: H3255
# Procedure, shortened: as §1
# [3] = system: NCI-H1355
# Procedure, shortened: as §1
# [4] = system: ABC-1
# Procedure, shortened: as §1
# [5] = system: NCI-H2228
# Procedure, shortened: as §1
# [6] = system: NCI-H1651
# Procedure, shortened: as §1
# [7] = system: LU99A
# Procedure, shortened: as §1
# [8] = system: NCI-H322M
# Procedure, shortened: as §1
# [9] = system: HCC-827
# Procedure, shortened: as §1
# [10] = system: LK-2
# Procedure, shortened: as §1
# [11] = system: CAL-12T
# Procedure, shortened: as §1
# [12] = system: 201T
# Procedure, shortened: as §1
# [13] = system: UMC-11
# Procedure, shortened: as §1
# [14] = system: NCI-H2085
# Procedure, shortened: as §1
# [15] = system: NCI-H1792
# Procedure, shortened: as §1
# [16] = system: NCI-H23
# Procedure, shortened: as §1
# [17] = system: NCI-H2405
# Procedure, shortened: as §1
# [18] = system: HCC-15
# Procedure, shortened: as §1
# [19] = system: RERF-LC-KJ
# Procedure, shortened: as §1
smiles,measurement,setting,value
COCC1(CO)C(=O)C2CCN1CC2 (configuration not stated) [PRIMA-1MET] + CS(=O)(=O)CCNCc1ccc(-c2ccc3ncnc(Nc4ccc(OCc5cccc(F)c5)c(Cl)c4)c3c2)o1 [Lapatinib] (partner 2 µM),relative viability,[1]; first compound 0.2 µM,0.936
same,relative viability,[1]; first compound 0.6325 µM,0.703
same,relative viability,[1]; first compound 2 µM,0.765
same,relative viability,[1]; first compound 6.325 µM,0.82
same,relative viability,[1]; first compound 20 µM,0.694
same,relative viability,[2]; first compound 0.2 µM,0.231
same,relative viability,[2]; first compound 0.6325 µM,0.21
same,relative viability,[2]; first compound 2 µM,0.225
same,relative viability,[2]; first compound 6.325 µM,0.237
same,relative viability,[2]; first compound 20 µM,0.195
same,relative viability,[3]; first compound 0.2 µM,1.12
same,relative viability,[3]; first compound 0.6325 µM,0.933
same,relative viability,[3]; first compound 2 µM,0.893
same,relative viability,[3]; first compound 6.325 µM,1
same,relative viability,[3]; first compound 20 µM,0.998
same,relative viability,[4]; first compound 0.2 µM,1.05
same,relative viability,[4]; first compound 0.6325 µM,1.11
same,relative viability,[4]; first compound 2 µM,0.956
same,relative viability,[4]; first compound 6.325 µM,1.17
same,relative viability,[4]; first compound 20 µM,1.03
same,relative viability,[5]; first compound 0.2 µM,1.12
same,relative viability,[5]; first compound 0.6325 µM,0.834
same,relative viability,[5]; first compound 2 µM,1.59
same,relative viability,[5]; first compound 6.325 µM,1.23
same,relative viability,[5]; first compound 20 µM,0.0337
same,relative viability,[6]; first compound 0.2 µM,0.917
same,relative viability,[6]; first compound 0.6325 µM,0.731
same,relative viability,[6]; first compound 2 µM,0.659
same,relative viability,[6]; first compound 6.325 µM,0.839
same,relative viability,[6]; first compound 20 µM,0.736
same,relative viability,[7]; first compound 0.2 µM,1.1
same,relative viability,[7]; first compound 0.6325 µM,0.905
same,relative viability,[7]; first compound 2 µM,0.955
same,relative viability,[7]; first compound 6.325 µM,0.91
same,relative viability,[7]; first compound 20 µM,0.0802
same,relative viability,[8]; first compound 0.2 µM,0.634
same,relative viability,[8]; first compound 6.325 µM,0.629
same,relative viability,[8]; first compound 20 µM,0.61
same,relative viability,[9]; first compound 0.2 µM,0.22
same,relative viability,[9]; first compound 0.6325 µM,0.164
same,relative viability,[9]; first compound 2 µM,0.198
same,relative viability,[9]; first compound 6.325 µM,0.184
same,relative viability,[9]; first compound 20 µM,0.198
same,relative viability,[10]; first compound 0.2 µM,0.885
same,relative viability,[10]; first compound 0.6325 µM,0.755
same,relative viability,[10]; first compound 2 µM,0.6
same,relative viability,[10]; first compound 6.325 µM,0.662
same,relative viability,[10]; first compound 20 µM,0.18
same,relative viability,[11]; first compound 0.2 µM,0.704
same,relative viability,[11]; first compound 0.6325 µM,0.736
same,relative viability,[11]; first compound 2 µM,0.571
same,relative viability,[11]; first compound 6.325 µM,0.677
same,relative viability,[11]; first compound 20 µM,0.388
same,relative viability,[12]; first compound 0.2 µM,1.15
same,relative viability,[12]; first compound 0.6325 µM,0.695
same,relative viability,[12]; first compound 2 µM,0.834
same,relative viability,[12]; first compound 6.325 µM,1.07
same,relative viability,[12]; first compound 20 µM,1.01
same,relative viability,[13]; first compound 0.2 µM,1.12
same,relative viability,[13]; first compound 0.6325 µM,0.898
same,relative viability,[13]; first compound 2 µM,0.755
same,relative viability,[13]; first compound 6.325 µM,0.961
same,relative viability,[13]; first compound 20 µM,0.991
same,relative viability,[14]; first compound 0.2 µM,0.814
same,relative viability,[14]; first compound 0.6325 µM,0.591
same,relative viability,[14]; first compound 2 µM,0.523
same,relative viability,[14]; first compound 6.325 µM,0.54
same,relative viability,[14]; first compound 20 µM,0.493
same,relative viability,[15]; first compound 0.2 µM,0.825
same,relative viability,[15]; first compound 0.6325 µM,0.769
same,relative viability,[15]; first compound 2 µM,0.868
same,relative viability,[15]; first compound 6.325 µM,0.963
same,relative viability,[15]; first compound 20 µM,0.807
same,relative viability,[16]; first compound 0.2 µM,1.29
same,relative viability,[16]; first compound 0.6325 µM,0.951
same,relative viability,[16]; first compound 2 µM,0.897
same,relative viability,[16]; first compound 6.325 µM,0.961
same,relative viability,[16]; first compound 20 µM,0.117
same,relative viability,[17]; first compound 0.2 µM,0.77
same,relative viability,[17]; first compound 0.6325 µM,1.17
same,relative viability,[17]; first compound 6.325 µM,0.85
same,relative viability,[17]; first compound 20 µM,0.0796
same,relative viability,[18]; first compound 0.2 µM,0.811
same,relative viability,[18]; first compound 0.6325 µM,0.743
same,relative viability,[18]; first compound 2 µM,0.777
same,relative viability,[18]; first compound 6.325 µM,0.853
same,relative viability,[18]; first compound 20 µM,0.623
same,relative viability,[19]; first compound 0.2 µM,1.01
same,relative viability,[19]; first compound 0.6325 µM,0.86
same,relative viability,[19]; first compound 2 µM,0.874
same,relative viability,[19]; first compound 6.325 µM,0.928
same,relative viability,[19]; first compound 20 µM,0.883
